Molecular target: (Homo sapiens, UniProt P07996)
Assay: Secondary Assay, inhibitory activity of thiadiazole and oxadiazole analogs as TGF-beta inhibitors
Format: biochemical
Settings: Table I
Experimental: A summary of the inhibitory activity of representative thiadiazole analogs (Tables i and ii) and oxadiazole analogs (Table ii) is shown below.
For initial screening, an ELISA-based screening assay was used in which purified human platelet TSP-1 was incubated with compounds and then incubated with recombinant latent TGF-β1 (purchased from R&D Systems). Activity is measured in a commercially available ELISA which detects only active TGF-β (R &D Systems). Activity in the presence of compounds is compared to activity in TSP-1+latent TGF-β samples without inhibitory compounds (Lu et al. (2016) Am J Pathol 186:678-690).
To specifically assess activity of compounds in liver cell specific assays, two different assays were used. In the first, human hepatic stellate cells were incubated overnight in low serum media to condition the media with secreted latent TGF-β. Purified TSP1 either pre-incubated with compounds or not will be added to cultures and then conditioned media harvested to assess TGF-β biological activity using the R&D Systems ELISA as above. Hepatic stellate cells will be purchased from commercial sources. Although hepatic stellate cells are the primary drivers of liver fibrosis, conditions which drive liver fibrosis can induce hepatocyte TSP-1 expression which can then have paracrine effects on controlling TGF-β activation in hepatic stellate cells. Furthermore, TGF-β can negatively impact hepatocyte regeneration following injury. Therefore, the ability of compounds to block TSP-1 activation of latent TGF-β will also be assessed in cultured primary human hepatocytes following the protocol described for the hepatic stellate cells. Similar approaches have successfully been used to screen compounds which inhibit human myeloma cell derived latent TGF-β activation by TSP-1 (Lu et al. (2016) Am J Pathol 186:678-690).

Chain of (Homo sapiens, UniProt P07996) (P07996 whole entry): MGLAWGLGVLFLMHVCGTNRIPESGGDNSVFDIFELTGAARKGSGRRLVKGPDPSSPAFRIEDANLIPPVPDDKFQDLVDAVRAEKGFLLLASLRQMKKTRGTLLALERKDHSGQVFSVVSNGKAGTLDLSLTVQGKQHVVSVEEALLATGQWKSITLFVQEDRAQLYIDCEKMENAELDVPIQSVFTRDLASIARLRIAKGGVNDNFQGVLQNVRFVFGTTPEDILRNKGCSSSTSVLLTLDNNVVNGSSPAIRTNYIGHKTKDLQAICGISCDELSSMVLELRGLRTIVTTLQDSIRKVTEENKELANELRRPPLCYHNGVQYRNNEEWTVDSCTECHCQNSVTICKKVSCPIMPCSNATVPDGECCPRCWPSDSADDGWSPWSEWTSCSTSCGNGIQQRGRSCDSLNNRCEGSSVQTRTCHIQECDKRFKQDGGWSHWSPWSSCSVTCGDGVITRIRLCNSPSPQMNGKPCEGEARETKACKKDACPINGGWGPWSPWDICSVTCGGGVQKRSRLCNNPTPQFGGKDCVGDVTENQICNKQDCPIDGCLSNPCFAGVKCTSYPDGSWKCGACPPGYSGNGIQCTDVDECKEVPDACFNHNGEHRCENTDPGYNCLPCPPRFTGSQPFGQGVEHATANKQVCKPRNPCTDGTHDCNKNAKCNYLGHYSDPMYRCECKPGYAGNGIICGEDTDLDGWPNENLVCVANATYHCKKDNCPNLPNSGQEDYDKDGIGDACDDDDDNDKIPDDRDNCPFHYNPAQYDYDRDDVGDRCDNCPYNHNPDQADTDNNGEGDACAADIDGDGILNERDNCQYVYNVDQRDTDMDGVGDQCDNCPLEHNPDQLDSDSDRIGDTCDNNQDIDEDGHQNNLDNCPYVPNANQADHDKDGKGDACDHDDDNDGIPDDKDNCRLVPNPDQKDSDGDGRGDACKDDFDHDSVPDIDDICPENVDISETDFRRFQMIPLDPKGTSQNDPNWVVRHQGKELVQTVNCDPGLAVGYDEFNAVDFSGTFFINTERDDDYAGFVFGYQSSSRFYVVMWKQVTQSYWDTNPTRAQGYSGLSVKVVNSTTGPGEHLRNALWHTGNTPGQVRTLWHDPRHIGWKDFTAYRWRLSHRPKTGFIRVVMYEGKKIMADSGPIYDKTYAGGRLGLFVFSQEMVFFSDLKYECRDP

| IC50 [nM] | SMILES |
| --- | --- |
| 2 | CC(=O)N[C@@H](Cc1ccc(CN(C)C)cc1)c1nnc(-c2cccc(OC(F)(F)F)c2)s1 [Compound 42320, N-(2-(4-((dimethylamino)methyl)phenyl)-1-(5-(3-(trifluoromethoxy)phenyl)-1,3,4-thiadiazol-2-yl)ethyl)acetamide] |
| 51 | CNCc1ccc(C[C@H](NC(C)=O)c2nnc(-c3cccc(OC(F)(F)F)c3)s2)cc1 [Compound 42140, N-(2-(4-((methylamino)methyl)phenyl)-1-(5-(3-(trifluoromethoxy)phenyl)-1,3,4-thiadiazol-2-yl)ethyl)acetamide] |

Source: US11033535B2, “Oxadiazoles and thiadiazoles as TGF-β inhibitors” (Southern Research Institute, priority 2017, dated 2021)
